Experimental findings from publication doi:10.1101/2024.12.03.626577v1 (biorxiv, 2024) are described below.

Each structure is given as a SMILES string.

The target of the first test is T1, TRIM21^PRY-SPRY (287-465aa) (Homo sapiens, UniProt P19474). The test is described as follows: SPR. It is filed as binding.
T1 sequence (P19474 287-465): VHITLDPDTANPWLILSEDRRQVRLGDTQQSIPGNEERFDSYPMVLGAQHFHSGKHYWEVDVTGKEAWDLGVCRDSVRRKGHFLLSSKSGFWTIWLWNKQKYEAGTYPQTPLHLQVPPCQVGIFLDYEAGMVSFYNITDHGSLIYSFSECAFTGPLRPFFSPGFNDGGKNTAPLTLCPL
Settings: not given
The term Kd denotes the concentration at which binding is half-saturated. A low value points to tighter binding. Turning to `Cc1ccccc1-c1ccc(C(=O)N(C)CC2CCCCC2)c(S(C)(=O)=O)c1` [2c, Compound 2c], the Kd was determined as 610 nM.
On the same count and under the same terms, next, `CSc1ccccc1-c1ccc(C(=O)N(C)CC2CCCCC2)c(S(C)(=O)=O)c1` [1a, Compound 1a]: 123 nM; `CSc1ccccc1-c1ccc(C(=O)N(C)CC2CCOC2)c(S(C)(=O)=O)c1` (centres unmarked) [1f, Compound 1f]: 350 nM.
Turning to `CN(CC1CCCCC1)C(=O)c1ccc(-c2ccccc2F)cc1S(C)(=O)=O` [2b, Compound 2b], the Kd turned out to be 2150 nM.
The same measure, in the same setting: next, `CSc1ccccc1-c1ccc(C(=O)N(C)Cc2ccon2)c(S(C)(=O)=O)c1` [1d, Compound 1d]: 171 nM; `CSc1ccccc1-c1ccc(C(=O)N(C)CC2CCCCC2(F)F)c(S(C)(=O)=O)c1` (centres unmarked) [2a, Compound 2a]: 234 nM; `CSc1ccccc1-c1ccc(C(=O)N(C)CC2CCOCC2)c(S(C)(=O)=O)c1` [1b, Compound 1b]: 29 nM.
Still for that read-out and setting: with `CCc1ccccc1CN(C)C(=O)c1ccc(-c2ccccc2SC)cc1S(C)(=O)=O` [1e, Compound 1e] the figure was 581 nM.
The same measure, in the same setting: with `COc1cnccc1-c1ccc(C(=O)N(C)CC2CCCCC2)c(S(C)(=O)=O)c1` [2d, Compound 2d] the figure was 1570 nM; with `CSc1ccccc1-c1ccc(C(=O)N(C)Cc2cc[nH]c2)c(S(C)(=O)=O)c1` [1c, Compound 1c], 17 nM.
On to `CSc1ccccc1-c1ccc(C(=O)N(C)Cc2cc[nH]c(=O)c2)c(S(C)(=O)=O)c1` [1g, Compound 1g], for which binding was characterised by a dissociation constant (Kd) of 11 nM.

The target of the next test is T1, TRIM21^PRY-SPRY (287-465aa). The test is described as follows: SPR.
Settings: not given
It is filed as binding. This is another data set of the same source.
As to `CSc1ccccc1-c1ccc(C(=O)N(C)CC2(F)CCCCC2)c(S(C)(=O)=O)c1` [compound 1, Compound 1], the Kd came to 193 nM.

The test system of a further test is PANC-1. The test is described as follows: cells. Conditions: Homo sapiens, PANC-1, 72 h, read-out: PANC-1 IC50 (µM).
As usually defined, the IC50 is the concentration that gives 50% inhibition. As for `COc1cnccc1-c1ccc(C(=O)N(C)CC2CCCCC2)c(S(C)(=O)=O)c1` [2d], the IC50 was 0.791 µM.
The same measure, in the same setting: next, `CSc1cc(F)ccc1-c1ccc(C(=O)N(C)CC2CCCCC2)c(S(C)(=O)=O)c1` [2e]: 0.094 µM; `CN(CC1CCCCC1)C(=O)c1ccc(-c2ccccc2F)cc1S(C)(=O)=O` [2b, Compound 2b]: 5.14 µM; `CSc1ccccc1-c1ccc(C(=O)N(C)CC2CCCCC2(F)F)c(S(C)(=O)=O)c1` (centres unmarked) [2a, Compound 2a]: 0.329 µM.
Take `Cc1ccccc1-c1ccc(C(=O)N(C)CC2CCCCC2)c(S(C)(=O)=O)c1` [2c]: the IC50 is 1.62 µM.
